Experimental data as given in patent US6902926B1, “Toxoplasma gondii apical membrane antigen-1” (priority 2000, dated 2005).

Tested on: secretion of the 53-kDa fragment of TgAMA-1
Test: Secretion assay: TgAMA-1 released from tachyzoites into culture supernatant, by western blot
Type: cell-based, Toxoplasma gondii
Conditions: for secretion of the 53-kDa fragment of TgAMA-1: 2-min treatment at 37° C.
Description: Tachyzoites (2F strain, constitutively expressing cytoplasmic β-galactosidase [generous gift of David Sibley]) were washed twice in DMEM+20 mM HEPES, pH 7.0 (4 min, 1000×g, 23° C.), and resuspended in 4 ml polystyrene round bottom tubes at a concentration of 2×10^8 tachyzoites/ml. The suspension was incubated for various times at 37° C. or treated for 15 min at 23° C. with either 1.0% (v/v) DMSO or 20 μM BAPTA-AM (1.0% [v/v] DMSO final), followed by 2 min at 37° C. with 200 nM A23187 (1.0% [v/v] DMSO final) or 1.0% ethanol. Cells were pelleted (4 min, 1000×g, 4° C.) and dissolved in SDS-PAGE sample buffer. Supernatants were recentrifuged (4 min, 1000×g, 4° C.) and dissolved in sample buffer. The samples were incubated for 10 min at 100° C. and analyzed by SDS-PAGE/western blotting. Gels to be probed with either Mab B3.90 or antipeptide antiserum UVT59 were run under non-reducing conditions; blots to be probed with Mab 6D10 were run under reducing conditions. The extent of parasite lysis was determined by measuring the levels of β-galactosidase in the supernatant, as previously described.

Row | SMILES | secretion of the 53-kDa fragment of TgAMA-1 | effect of pretreatment on ethanol/A23187-enhanced secretion of the 53-kDa fragment (pretreating the parasites before ethanol or A23187)
1 | CNc1ccc2oc(C[C@H]3O[C@@]4(CC[C@H]3C)O[C@H]([C@H](C)C(=O)c3ccc[nH]3)[C@H](C)C[C@H]4C)nc2c1C(=O)O [A23187] | dramatically enhanced | –
2 | CCO [ethanol] | dramatically enhanced | –
3 | CC(=O)OCOC(=O)CN(CC(=O)OCOC(C)=O)c1ccccc1OCCOc1ccccc1N(CC(=O)OCOC(C)=O)CC(=O)OCOC(C)=O [BAPTA-AM] | – | abrogated
